In brackets after ≈: the same amount, converted by molar mass. Several values for one entry are separate records, joined by “and”; a condition that tells them apart may be missing. Equal entries are not always repeated.
Key:
[1] = positive charge at position 17 replacing Methionine; Wiedemann et al., 2001; cited from earlier work
L. lactis HP [2] = assay: Deferred antagonism assay; assay type: cell-based; details: producing strain
Description: (§1) Mutagenesis of the nisA gene was carried out as described previously (Field et al., 2008). Briefly, saturation mutagenesis was carried out using pDF05 (pCI372-nisA) as template and using oligonucleotides containing an NNK codon in place of each native codon. PCR amplification was performed in a 50 µl reaction containing approximately 0.5 ng of target DNA (pDF05), 1 unit Phusion High-Fidelity DNA polymerase (Finnzymes, Finland), 1 mM dNTPs and 500 ng each of the appropriate forward and reverse oligonucleotide. The reaction was pre-heated at 98°C for 2 min, and then incubated for 29 cycles at 98°C for 30 s, 55°C for 15 s and 72°C for 3 min 30 s, and then finished by incubating at 72°C for 3 min 30 s. Amplified products were treated with Dpn1 (Stratagene) for 60 min at 37°C to digest template DNA and purified using the QIAquick PCR purification kit. Following transformation of E. coli Top 10 cells plasmid DNA was isolated and sequenced using primers pCI372FOR (5' […] 3') and pCI372REV (5' […] 3') to verify that mutagenesis had taken place. Approximately 150 transformants were chosen at random for each position and inoculated into 96-well plates containing GM17 chloramphenicol, incubated overnight and stored at -20°C after addition of 80% glycerol. Deferred antagonism assays were performed by replicating strains on GM17 agar plates and allowing them to grow overnight before overlaying with BHI agar (0.75% w/v agar) seeded with the appropriate indicator strain.
(§2) Previously, site-saturation mutagenesis-based strategies were used to generate strains producing bioengineered nisin derivatives in which all residues not involved in lanthionine ring formation (i.e. I1, T2, 14, S5, L6, P9, G10, K12, G14, A15, L16, M17, G18, N20, M21, K22, A24, H27, S29 130, H31, V32, S33 and K34) were each randomised to potentially all other natural amino acids, or whereby all three residues of the hinge-region (NMK) were randomised simultaneously (Rouse et al., 2012, Healy et al., 2013, Field et al., 2008). […] From this screen 76 variants of interest from the first round of screening were incorporated into a "mini-bank" for subsequent further analysis. The number of indicator strains was increased from five to thirteen to include S. uberis 43382, S. uberis DPC5344, S. dysgalactiae ATCC43078, L. lactis 303, L. cremoris KH, Lactobacillus bulgaricus NCDO2489, Lb. helveticus 2079 and Lb. acidophilus ATCC4356 (Table 1). Following this second round of screening, 6 variants of interest were deemed worthy of closer inspection. DNA sequencing of the mutated nisin gene as well as mass spectrometric analysis of the peptide produced by each strain established that these corresponded to nisin M17Q (methionine at position 17 altered to glutamine), nisin T2L (threonine 2 leucine) nisin HTK, VGA, VGV or VGT (where the hinge residues Asn-Met-Lys have been altered to His-Thr-Lys, Val-Gly-Ala, Val-Gly-Val or Val-Gly-Thr respectively). […] As a result, these derivatives were eliminated from this study, but will be the subject of further investigation as potential anti-mastitis antimicrobials. […] In the case of the derivatives nisin T2L and nisin HTK, the activity appeared reduced and equivalent to nisin A respectively (Figure 1), while improved activity was observed by both derivatives against S. agalactiae ATCC13813 and S. aureus RF122 (Table 2). On this basis, the nisin derivatives M17Q, T2L and HTK were selected for purification and specific activity assays. Purified peptides were subjected to Mass Spectrometry to confirm the correct mass in each case. In the case of T2L and HTK derivatives, the threonine remained in the unmodified form (data not shown).

L. lactis MG1363 [3] = assay: Deferred antagonism assay; assay type: cell-based; details: producing strain
Description: as §1, §2

S. agalactiae ATCC13813 = assay: Deferred antagonism assay; assay type: cell-based; details: producing strain
Description: as §1, §2

S. aureus RF122 [4] = assay: Deferred antagonism assay; assay type: cell-based; details: producing strain
Description: as §1, §2

B. longum UCC 44b = assay type: cell-based
Description: (§3) Minimum inhibitory concentration determinations were carried out in triplicate in 96 well microtitre plates. 96 well microtitre plates were pre-treated with bovine serum albumin (BSA) prior to addition of the peptides. Briefly, to each well of the microtitre plate 200 µL of phosphate buffered saline (PBS) containing 1% (w/v) bovine serum albumin (PBS/BSA) was added and incubated at 37°C for 30 min. The wells were washed with 200 µL PBS and allowed to dry. Target strains were grown overnight in the appropriate conditions and medium, subcultured into fresh broth and allowed to grow to an OD600 of ∼0.5, diluted to a final concentration of 10^5 cfu ml^-1 in a volume of 0.2 ml. The lyophilised peptides were resuspended in the appropriate media to a stock concentration of 30 µM. Wild type nisin and nisin mutant peptides were adjusted to a 7.5 or 5.0 µM or 500 nM starting concentration and 2-fold serial dilutions of each peptide were made in 96 well plates for a total of 12 dilutions.
(§4) To confirm that the observed enhanced activity of the nisin variants was due to increased specific activity, the activity of purified peptides were assessed using classical broth-based minimum inhibitory concentration (MIC) determination assays. […] Also included were the lactic acid bacteria targets L. lactis MG1363, L. lactis spp. lactis HP, B. longum UCC44b and Lb acidophilus ATCC 4356.

[5] = tested on: Lb. acidophilus ATCC 4356; assay type: cell-based; details: for Specific activity (MIC): purified peptide
Description: as §3, §4

L. lactis HP [6] = assay: Minimum inhibitory concentration assay; assay type: cell-based; details: for fold reduction in potency: compared to wild-type nisin A; for Specific activity (MIC): purified peptide
Description: as §3, §4

S. aureus 272 = assay: Minimum inhibitory concentration assay; assay type: cell-based; details: for Specific activity (MIC): purified peptide
Description: as §3, §4

S. aureus 513 = assay: Minimum inhibitory concentration assay; assay type: cell-based; details: purified peptide
Description: as §3, §4

S. aureus 5971 = assay: Minimum inhibitory concentration assay; assay type: cell-based; details: for Specific activity (MIC): purified peptide
Description: as §3, §4

S. aureus DPC 5243 = assay: Minimum inhibitory concentration assay; assay type: cell-based; details: purified peptide
Description: as §3, §4

S. aureus DPC 5245 = assay: Minimum inhibitory concentration assay; assay type: cell-based; details: purified peptide
Description: as §3, §4

S. aureus DPC 5247 = assay: Minimum inhibitory concentration assay; assay type: cell-based; details: purified peptide
Description: as §3, §4

S. aureus ST528(MRSA) = assay: Minimum inhibitory concentration assay; assay type: cell-based; details: for Specific activity (MIC): S. aureus ST528(MRSA), purified peptide
Description: as §3, §4

S. aureus ST534(MRSA) = assay: Minimum inhibitory concentration assay; assay type: cell-based; details: for Specific activity (MIC): S. aureus ST534(MRSA), purified peptide
Description: as §3, §4

S. aureus strains = assay: Minimum inhibitory concentration assay, panel of S. aureus strains; assay type: cell-based; details: panel of 12 S. aureus isolates; compared to nisin A
Description: as §3, §4

L. lactis MG1363 [7] = assay type: cell-based
Description: as §3, §4

S. aureus 20777 = assay type: cell-based
Description: as §3, §4

S. aureus 54072 = assay type: cell-based
Description: as §3, §4

S. aureus NCDO1499 = assay type: cell-based
Description: as §3, §4

S. aureus RF122 [8] = assay type: cell-based
Description: as §3, §4

Compound	zone of inhibition (area of the zone of inhibition minus the area of the spot) (L. lactis HP [2])	zone of inhibition (area of the zone of inhibition minus the area of the spot) (L. lactis MG1363 [3])	zone of inhibition (area of the zone of inhibition minus the area of the spot) (S. agalactiae ATCC13813)	zone of inhibition (area of the zone of inhibition minus the area of the spot) (S. aureus RF122 [4])	fold decreased activity compared to wild type peptide (B. longum UCC 44b)	fold reduction in specific activity compared to wild type nisin A [5]	Specific activity (MIC) [5]	fold reduction in potency (L. lactis HP [6])	Specific activity (MIC) (L. lactis HP [6])	Specific activity (MIC) (S. aureus 272)	Specific activity (MIC) (S. aureus 513)	Specific activity (MIC) (S. aureus 5971)	Specific activity (MIC) (S. aureus DPC 5243)	Specific activity (MIC) (S. aureus DPC 5245)	Specific activity (MIC) (S. aureus DPC 5247)	Specific activity (MIC) (S. aureus ST528(MRSA))	Specific activity (MIC) (S. aureus ST534(MRSA))	number of S. aureus strains with enhanced specific activity (S. aureus strains)	other results
Nisin Z M17K	–	–	–	–	–	–	–	–	–	–	–	–	–	–	–	–	–	–	antimicrobial activity reduced to [1]: 50%
C=C(NC(=O)[C@@H](NC(=O)[C@H](Cc1c[nH]cn1)NC(=O)[C@@H](NC(=O)[C@H](CO)NC(=O)[C@@H]1CS[C@@H](C)[C@H]2NC(=O)[C@H](C)NC(=O)[C@H](NC(=O)[C@H](CCCCN)NC(=O)[C@H](CCSC)NC(=O)[C@H](CC(N)=O)NC(=O)[C@@H]3CS[C@@H](C)[C@@H](NC(=O)[C@H](CCCCN)NC(=O)[C@@H]4CS[C@@H](C)[C@@H](NC(=O)[C@@H]5CSC[C@@H](NC(=O)[C@H](CC(C)C)NC(=O)[C@@H](N)[C@@H](C)CC)C(=O)N[C@@H]([C@@H](C)CC)C(=O)NC(=C)C(=O)N[C@@H](CC(C)C)C(=O)N5)C(=O)N5CCC[C@H]5C(=O)NCC(=O)N4)C(=O)NCC(=O)N[C@@H](C)C(=O)N[C@@H](CC(C)C)C(=O)N[C@@H](CCSC)C(=O)NCC(=O)N3)[C@H](C)SC[C@H](NC2=O)C(=O)N[C@@H](Cc2c[nH]cn2)C(=O)N1)[C@@H](C)CC)C(C)C)C(=O)N[C@@H](CCCCN)C(=O)O [T2L, nisin T2L]	134.12 ± 19.00 mm2	80.11 ± 12.18 mm2	194.44 ± 6.22 mm2	100.05 ± 14.96 mm2	2 fold	4 fold	0.12 Mg/L and 0.044 µM	2 fold	0.4 Mg/L and 0.125 µM	0.75 Mg/L and 0.234 µM	3 Mg/L and 0.937 µM	1.5 Mg/L and 0.468 µM	0.5 Mg/L and 0.156 µM	0.5 Mg/L and 0.156 µM	0.5 Mg/L and 0.156 µM	0.125 Mg/L and 0.039 µM	0.25 Mg/L and 0.078 µM	9	fold enhanced activity (S. aureus 272; compared to nisin A): 4 fold; fold improved activity (S. aureus 5971; compared to nisin A): 16 fold; fold enhanced activity (S. aureus ST528(MRSA); S. aureus ST528 (MRSA), compared to nisin A): 4 fold; fold enhanced activity (S. aureus ST534(MRSA); S. aureus ST 534 (MRSA), compared to nisin A): 4 fold
C=C(NC(=O)[C@@H](NC(=O)[C@H](Cc1c[nH]cn1)NC(=O)[C@@H](NC(=O)[C@H](CO)NC(=O)[C@@H]1CS[C@@H](C)[C@H]2NC(=O)[C@H](C)NC(=O)[C@H](NC(=O)[C@H](CCCCN)NC(=O)[C@@H](NC(=O)[C@H](Cc3c[nH]cn3)NC(=O)[C@@H]3CS[C@@H](C)[C@@H](NC(=O)[C@H](CCCCN)NC(=O)[C@@H]4CS[C@@H](C)[C@@H](NC(=O)[C@@H]5CSC[C@@H](NC(=O)/C(=C/C)NC(=O)[C@@H](N)[C@@H](C)CC)C(=O)N[C@@H]([C@@H](C)CC)C(=O)NC(=C)C(=O)N[C@@H](CC(C)C)C(=O)N5)C(=O)N5CCC[C@H]5C(=O)NCC(=O)N4)C(=O)NCC(=O)N[C@@H](C)C(=O)N[C@@H](CC(C)C)C(=O)N[C@@H](CCSC)C(=O)NCC(=O)N3)[C@@H](C)O)[C@H](C)SC[C@H](NC2=O)C(=O)N[C@@H](Cc2c[nH]cn2)C(=O)N1)[C@@H](C)CC)C(C)C)C(=O)N[C@@H](CCCCN)C(=O)O [HTK, nisin HTK]	230.58 ± 6.71 mm2	137.70 ± 5.40 mm2	148.14 ± 3.66 mm2	106.66 ± 3.00 mm2	4 fold	4 fold	0.12 Mg/L and 0.044 µM	2 fold	0.4 Mg/L and 0.125 µM	6 Mg/L and 1.875 µM	6 Mg/L and 1.875 µM	12.57 Mg/L and 3.75 µM	1 Mg/L and 0.312 µM	1 Mg/L and 0.312 µM	1 Mg/L and 0.312 µM	0.25 Mg/L and 0.078 µM	1 Mg/L and 0.312 µM	6	MIC (B. longum UCC 44b): 0.24 µg/mL (≈ 0.0717 µM); MIC (L. lactis MG1363 [7]): 0.4 µg/mL (≈ 0.12 µM); MIC [5]: 0.12 µg/mL (≈ 0.0359 µM); MIC (S. aureus 20777): 0.125 µg/mL (≈ 0.0373 µM); MIC (S. aureus 54072): 0.25 µg/mL (≈ 0.0747 µM); MIC (S. aureus NCDO1499): 0.03 µg/mL (≈ 0.00896 µM); MIC (S. aureus RF122 [8]): 1 µg/mL (≈ 0.299 µM)
